Assay results taken from BindingDB's records for doi:10.1021/jm00054a015 (Merck Research Laboratories, 1993).

Each molecule was assayed against T1, Dimer of Gag-Pol polyprotein [489-587] (Human immunodeficiency virus 1, UniProt P12497) (assay: Protease Inhibition Assay). Settings: pH 5.5; 30 °C.
T1 construct: 489-587
Experimental: Sensitivity of HIV-1 protease activity to protease inhibitors was determined by a peptide substrate cleavage assay. Protease products were analyzed on a reverse-phase high-pressure liquid chromatograph.
For `CC(C)(C)NC(=O)C1C[C@@H]2CCCC[C@@H]2CN1C[C@@H](O)[C@H](Cc1ccccc1)NC(=O)O[C@@H]1C=CCOC1` (stereo partly drawn) [(3R)-3,6-dihydro-2H-pyran-3-yl N-[(2S,3R)-4-[(4aS,8aS)-3-(tert-butylcarbamoyl)-decahydroisoquinolin-2-yl]-3-hydroxy-1-phenylbutan-2-yl]carbamate], the IC50 was 48.9 nM.
`CC(C)(C)NC(=O)C1C[C@@H]2CCCC[C@@H]2CN1C[C@@H](O)[C@H](Cc1ccccc1)NC(=O)O[C@@H]1CCCOC1` (stereo partly drawn) [(3R)-oxan-3-yl N-[(2S,3R)-4-[(4aS,8aS)-3-(tert-butylcarbamoyl)-decahydroisoquinolin-2-yl]-3-hydroxy-1-phenylbutan-2-yl]carbamate] showed an IC50 of 308 nM.
For `O=C(N[C@@H](Cc1ccccc1)[C@@H](O)C[C@@H](Cc1ccccc1)C(=O)N[C@H]1c2ccccc2C[C@H]1O)O[C@@H]1CCCOC1` [(3R)-oxan-3-yl N-[(2S,3S,5R)-5-benzyl-3-hydroxy-5-{[(1S,2R)-2-hydroxy-2,3-dihydro-1H-inden-1-yl]carbamoyl}-1-phenylpentan-2-yl]carbamate], the IC50 was < 0.03 nM.
`CC(C)(C)NC(=O)C1C[C@@H]2CCCC[C@@H]2CN1C[C@@H](O)[C@H](Cc1ccccc1)NC(=O)O[C@H]1C=CCOC1` (stereo partly drawn) [(3S)-3,6-dihydro-2H-pyran-3-yl N-[(2S,3R)-4-[(4aS,8aS)-3-(tert-butylcarbamoyl)-decahydroisoquinolin-2-yl]-3-hydroxy-1-phenylbutan-2-yl]carbamate] showed an IC50 of 314 nM.
`CC(C)(C)NC(=O)C1C[C@@H]2CCCC[C@@H]2CN1C[C@@H](O)[C@H](Cc1ccccc1)NC(=O)O[C@H]1CCCOC1` (stereo partly drawn) [(3S)-oxan-3-yl N-[(2S,3R)-4-[(4aS,8aS)-3-(tert-butylcarbamoyl)-decahydroisoquinolin-2-yl]-3-hydroxy-1-phenylbutan-2-yl]carbamate] gave an IC50 of 392 nM.
With `O=C(N[C@@H](Cc1ccccc1)[C@@H](O)C[C@@H](Cc1ccccc1)C(=O)N[C@H]1c2ccccc2C[C@H]1O)O[C@H]1CCCOC1` [(3S)-oxan-3-yl N-[(2S,3S,5R)-5-benzyl-3-hydroxy-5-{[(1S,2R)-2-hydroxy-2,3-dihydro-1H-inden-1-yl]carbamoyl}-1-phenylpentan-2-yl]carbamate] the IC50 was < 0.03 nM.
`O=C(N[C@@H](Cc1ccccc1)[C@@H](O)C[C@@H](Cc1ccccc1)C(=O)N[C@H]1c2ccccc2C[C@H]1O)O[C@H]1CCOC1` [(3S)-oxolan-3-yl N-[(2S,3S,5R)-5-benzyl-3-hydroxy-5-{[(1S,2R)-2-hydroxy-2,3-dihydro-1H-inden-1-yl]carbamoyl}-1-phenylpentan-2-yl]carbamate] was tested, and the IC50 was < 0.03 nM.
With `CC(C)(C)NC(=O)C1C[C@@H]2CCCC[C@@H]2CN1C[C@@H](O)[C@H](Cc1ccccc1)NC(=O)OC(C)(C)C` (stereo partly drawn) [tert-butyl N-[(2S,3R)-4-[(4aS,8aS)-3-(tert-butylcarbamoyl)-decahydroisoquinolin-2-yl]-3-hydroxy-1-phenylbutan-2-yl]carbamate] the IC50 was > 3000 nM.
